Reference: US20250145606A1 (Arcus Biosciences, Inc., priority 2023, published 2025)
Read-outs that look alike come from different tables or passages of the source. Marks after values point to notes of the source that are not given here.

Experiments:
[1] = system: Phospho-KIT (Y703) in M07e cells; assay: Phospho-KIT (Y703) cellular assay in M07e cells; assay type: cell-based; settings: M-07e, read-out: M07e Cell IC50
In short: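 Serum-starved M07e cells preincubated 50 min at 37° C with 11-point half-log compound titration, then stimulated 10 min with SCF at 90.9 ng/mL final. Fixed, permeabilized cells stained for phospho-KIT Y703 and read by flow cytometry (live-gated geometric mean); IC50 by 4-parameter fit normalized to DMSO and positive control.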

[2] = system: cynomolgus monkey hepatocytes; assay: Bioactivation assessment in monkey hepatocytes; assay type: in vitro ADME; settings: 5 μM, 4 hours
Experimental: (§1) Bioactivation Assessment Procedure
(§2) Pooled male Sprague Dawley rat (BioIVT), male beagle dog (BioIVT), male cynomolgus monkey (BioIVT), and a 50-donor pool of cryopreserved human hepatocytes (BioIVT) was thawed in pre-warmed 37° C. InVitroGro™ HT media (BioIVT), centrifuged, and resuspended in the InVitroGro™ HI media (BioIVT). The number of viable cells was determined by the Trypan blue exclusion method. The cells were diluted to a concentration of two million viable cells per milliliter (viability >80%) and seeded into round-bottom 96-well plates. The test articles were dissolved in DMSO and further diluted in 50% CH3CN and InVitroGro™ HI media with final concentrations of 0.05% DMSO and 0.5% CH3CN in the incubation mixture. Incubation was performed at a final concentration of one million cells per milliliter and 5 μM test compounds with continuous shaking at 1100 rpm in a 37° C., 5/95% CO2/air incubator with 100% relative humidity. After 4 hours, the samples were quenched by addition of 3 volumes of CH3CN, vortexed for 15 minutes, and centrifuged at 4200 rpm for 15 minutes at 10° C. (Sorvall Legend XTR centrifuge, Thermo Scientific, Langenselbold, Germany). 80 μL of the resulting supernatant was transferred into a new plate and mixed with 160 μL water followed by liquid chromatography-high resolution mass spectrometry (LC-HRMS) analysis.
(§3) Structural assignments of metabolites were determined through mass spectral analysis. The level of bioactivation was estimated based on the relative peak area of bioactivation products to all identified metabolites. The following equation was used: […]
(§4) Bioactivation products included glutathione conjugates, imine methides, quinones, diols, and other relevant metabolites.

human hepatocytes = assay: Bioactivation assessment in human hepatocytes; assay type: in vitro ADME; settings: 5 μM, 4 hours
Experimental: as §1, §2, §3, §4

[3] = phospho-KIT (Y703), SCF-stimulated M07e cells

| IC50 ([1]; Phospho-KIT (Y703), M07e cells) [µM] | IC50 [1, 3] [µM] | SMILES | IC50 [1] [µM] | Percent of total metabolism via bioactivation, Monkey hepatocytes [2] [%] | Percent of total metabolism via bioactivation, Human hepatocytes (human hepatocytes) |
| --- | --- | --- | --- | --- | --- |
| < 0.1 |  | Cc1ncc(C(=O)Nc2cc(C(=O)Nc3ccc(OC(F)F)cn3)c(F)cc2C)s1 [Example 38, N-[5-[[5-(difluoromethoxy)pyridin-2-yl]carbamoyl]-4-fluoro-2-methylphenyl]-2-methyl-1,3-thiazole-5-carboxamide] |  |  |  |
|  |  | Cc1ncc(C(=O)Nc2cc(C(=O)Nc3ccc(C4CC4)cn3)c(F)cc2C)s1 [Example 3, N-[5-[(5-Cyclopropylpyridin-2-yl)carbamoyl]-4-fluoro-2-methylphenyl]-2-methyl-1,3-thiazole-5-carboxamide] | < 0.1 | 2 | <0.1% |
|  | < 0.1 | Cc1ncc(C(=O)Nc2cc(C(=O)Nc3cnc(OCC(C)(F)F)cn3)c(F)cc2C)s1 [Example 4, N-[5-[[5-(2,2-Difluoropropoxy)pyrazin-2-yl]carbamoyl]-4-fluoro-2-methylphenyl]-2-methyl-1,3-thiazole-5-carboxamide] |  |  |  |
|  | < 0.1 | Cc1ncc(C(=O)Nc2cc(C(=O)Nc3ccc(OC4CC4)cn3)c(F)cc2C)s1 [Example 2, N-[5-[(5-Cyclopropyloxypyridin-2-yl)carbamoyl]-4-fluoro-2-methylphenyl]-2-methyl-1,3-thiazole-5-carboxamide] |  |  |  |
|  |  | Cc1ncc(C(=O)Nc2cc(C(=O)Nc3ccc(CC(F)(F)F)cn3)c(F)cc2C)s1 [Example 1, N-[4-Fluoro-2-methyl-5-[[5-(2,2,2-trifluoroethyl)pyridin-2-yl]carbamoyl]phenyl]-2-methyl-1,3-thiazole-5-carboxamide] | < 0.1 | 4 | <0.1%^b |
| < 0.1 |  | Cc1ncc(C(=O)Nc2cc(C(=O)Nc3ccc(CC(F)(F)F)cn3)c(F)cc2Cl)s1 [Example 46, N-[2-chloro-4-fluoro-5-[[5-(2,2,2-trifluoroethyl)pyridin-2-yl]carbamoyl]phenyl]-2-methyl-1,3-thiazole-5-carboxamide] |  |  |  |
|  |  | Cc1ncc(C(=O)Nc2cc(C(=O)Nc3ccc(CC4CC4)cn3)c(F)cc2C)s1 [Example 5, N-[5-[[5-(Cyclopropylmethyl)pyridin-2-yl]carbamoyl]-4-fluoro-2-methylphenyl]-2-methyl-1,3-thiazole-5-carboxamide] | < 0.1 | <1 | <1% |
